Several values for one entry are separate records, joined by “and”; a condition that tells them apart may be missing. Equal entries are not always repeated.
Assays:
Assay type in all cases: physicochemical
[1] = Visual assessment of suspension formulations by time lapse photography 10 and 30 seconds after agitation; design: key: + = visually acceptable formulation; − = visually unacceptable formulation; ? = border line acceptable formulation
Experimental: (§1) For each of the micronized drug substances A-G set forth below, formulations were prepared at drug concentrations of 0.017 percent, 0.039 percent, 0.083 percent, 0.41 percent, and 1.6 percent by weight based on the total weight of the formulation (corresponding to 0.20 mg/mL, 0.50 mg/mL, 1.0 mg/mL, 5.0 mg/Ml, and 20 mg/mL, respectively). The formulations were prepared by dispersing micronized drug in HFC 134a in a sealed 15 mL clear PET vial using ultrasonic energy.
Using time lapse photography 10 and 30 seconds after agitation the formulations were assessed as follows: […]
The formulations were photographed using time lapse photography at 10 and 30 seconds post agitation and were assessed as follows: […]

[2] = Visual observation of suspension aerosol formulations (dispersion, flocculation, settling, creaming, suitability for metered dose inhaler); settings: for homogeneity of suspension: Example 1: 1.6 percent in HFC 134a
Experimental: as §1
For each propellant mix the range of drug concentrations used in Example 1 was used.
BDP formulations were prepared at 0.070 percent by weight (1.0 mg/mL) in HFC 227 and at 0.38 percent by weight (5.0 mg/mL) in a 1:1 mixture of HFC 227 and HFC 134a.
Formulations of salmeterol free base at 0.02 percent by weight and 0.05 percent by weight were prepared in HFC 134a and in HFC 227 by placing the drug and 5 mL of glass beads into a 15 mL glass vial, crimping on a continuous valve, and adding the appropriate amount of propellant. The formulations were shaken on a paint shaker for 10 min in order to disperse the drug.
The vial was then shaken on a paint shaker, chilled, and the contents transferred to 10 mL vials fitted with the metered dose valve. […] Valve delivery was measured through the life of the formulations.

[3] = Respirable fraction (Anderson Cascade Impactor)
Experimental: In this assay the respirable fraction (the percent by weight of particles having an aerodynamic particle size of less than 4.7 microns) of the aerosol suspension is determined using an Anderson Cascade Impactor (available from Anderson Sampler Inc,; Atlanta, Ga.).
The aerosol vial to be tested is primed five times. The valve and valve stem are then cleaned with methanol and dried with compressed air. The aerosol vial and a clean, dry actuator are coupled to the glass throat attached to the top of the impactor using an appropriate firing adaptor. The calibrated vacuum pump (28.3 L/min) attached to the cascade impactor is turned on. A total of 20 sprays is delivered into the cascade impactor by repeatedly shaking the vial, seating it in the actuator and immediately delivering a single spray. The time between sprays is approximately 30 seconds. The cascade impactor is disassembled and each component is rinsed separately with diluent (55 parts methanol mixed with 45 parts of 0.1 percent aqueous phosphoric acid, v/v). Each solution is analyzed for pirbuterol acetate content using high performance liquid chromatography. The respirable fraction is calculated as follows:
% respirable=drug recovered from plates 3-7×100 total drug−drug recovered from recovered actuator and valve
In Examples 13-14 below respirable fraction is determined using the test method described above but using a diluent of 45 parts by volume methanol and 55 parts by volume of 0.1 percent aqueous phosphoric acid.

[4] = Example 1: drug concentration 0.017 % in HFC 134a alone
[5] = Example 1: drug concentration 0.039 % in HFC 134a alone
[6] = Example 1: drug concentration 0.083 % in HFC 134a alone
[7] = Example 1: drug concentration 0.41 % in HFC 134a alone
[8] = Example 1: drug concentration 1.63 % in HFC 134a alone
[9] = Example 4: 0.070 percent in HFC 227
[10] = Example 4: 0.38 percent in 1:1 HFC 134a/HFC 227
[11] = Example 5: 0.02 and 0.05 percent by weight in HFC 134a and in HFC 227

Row | Compound | visual assessment of formulation [1, 4] | visual assessment of formulation [1, 5] | visual assessment of formulation [1, 6] | visual assessment of formulation [1, 7] | visual assessment of formulation [1, 8] | homogeneity of suspension [2] | other results
1 | CC(C)(C)NCC(O)c1ccc(O)c(CO)c1 (stereo not drawn) [Albuterol] | + | + | ? | − | + | particularly homogenous suspensions | 
2 | CCC(=O)OCC(=O)[C@@]1(OC(=O)CC)[C@@H](C)C[C@H]2[C@@H]3CCC4=CC(=O)C=C[C@]4(C)[C@@]3(Cl)[C@@H](O)C[C@@]21C [Beclomethasone dipropionate] | + | + | ? | − | + | particularly homogenous suspensions | dispersion [2, 9]: fairly well dispersed; time of flocculation after shaking [2, 9]: about 10 seconds; flocculation [2, 10]: flocculation was rapid; settling or creaming of flocs [2, 10]: the flocs neither settled nor creamed
3 | O=C([O-])c1cc(=O)c2c(OCC(O)COc3cccc4oc(C(=O)[O-])cc(=O)c34)cccc2o1.[Na+].[Na+] [Disodium cromoglycate] | + | + | ? | − | − |  | homogeneity of formulation ([2]; Example 2: 0.015, 0.035 and 0.070 percent by weight in HFC 227, no surfactant): particularly homogenous; flocculation and sedimentation ([2]; Example 2: 0.35 percent and 1.4 percent in HFC 227, no surfactant): more rapid flocculation and sedimentation
4 | OCc1cc(C(O)CNCCCCCCOCCCCc2ccccc2)ccc1O (stereo not drawn) [salmeterol free base, salmeterol] |  |  |  |  |  |  | creaming [2, 11]: cream in both propellants, more so in HFC 227 than in HFC 134a; flocculation [2, 11]: Flocculation was also apparent; suitability for metered dose inhaler [2, 11]: deemed suitable for use in connection with a metered dose inhaler
5 | Albuterol sulfate | + | + | + | − | − |  | respirable fraction (aerodynamic particle size less than 4.7 microns) ([3]; Example 13: 0.4 percent by weight albuterol sulfate in HFC 227, duplicate, two vials): 69.3% and 60.6% and 64.0% and 63.0%; respirable fraction (aerodynamic particle size less than 4.7 microns) ([3]; Example 14: 0.40 percent albuterol sulfate, 0.50 percent oleic acid, 15.0 percent ethanol, HFC 227, duplicate, two vials): 28.0% and 22.0% and 27.1% and 28.8%; homogeneity of formulation ([2]; Comparative Example: CFC propellant mixes A and B (Propellants 11/114/12), no surfactant, 0.20, 0.50 and 1.0 mg/mL): acceptably homogenous; caking of drug on container walls ([2]; Comparative Example: CFC propellant mixes A and B versus HFC 134a counterparts of Example 1): more caking of drug on the walls of the container than their HFC 134a counterparts; flocculation ([2]; Comparative Example: CFC propellant mixes A and B, no surfactant, 5.0 and 20 mg/mL): relatively rapid flocculation; suitability for metered dose inhaler ([2]; Example 15: 0.37 percent albuterol sulfate, 0.10 percent sorbitan trioleate, 9.95 percent ethanol, 89.58 percent HFC 227): deemed to be suitable for use in connection with a metered dose inhaler
6 | Pirbuterol acetate | + | + | ? | ? | + |  | respirable fraction (aerodynamic particle size less than 4.7 microns) ([3]; Example 11: 0.9 percent by weight pirbuterol acetate in HFC 227, duplicate, two vials): 59.1% and 54.8% and 53.9% and 49.3%; respirable fraction (aerodynamic particle size less than 4.7 microns) ([3]; Example 12: 0.9 percent pirbuterol acetate, 10 percent ethanol, HFC 227, duplicate, two vials): 34.9% and 32.5% and 31.7% and 31.3%; respirable fraction (aerodynamic particle size less than 4.7 microns) ([3]; Example 16: 0.9 percent pirbuterol acetate, 3 percent ethanol, HFC 227, two separate vials): 59.8% and 52.8%; respirable fraction (aerodynamic particle size less than 4.7 microns) ([3]; Example 17: 0.9 percent pirbuterol acetate, 5 percent ethanol, HFC 227, two separate vials): 48.2% and 43.5%; suitability for metered dose inhaler ([2]; Example 9: 0.9 percent by weight pirbuterol acetate in HFC 227): deemed to be suitable for use in connection with a metered dose inhaler; suitability for metered dose inhaler ([2]; Example 10: 0.90 percent pirbuterol acetate, 0.23 percent oleic acid, 10.0 percent ethanol, HFC 227): deemed to be suitable for use in connection with a metered dose inhaler
